{"source": "paper PMC9851200", "about": "“Multiparameter phenotypic screening for endogenous TFEB and TFE3 translocation identifies novel chemical series modulating lysosome function” (Autophagy, 2022)", "origin": "cited, not measured here", "set-up_in_all_cases": "method as in original PKIS2 published data", "key": {"[1]": {"biological_target": "kinases (KINOMEscan panel) (Homo sapiens, UniProt P17948)", "sequence (P17948 27-1338)": "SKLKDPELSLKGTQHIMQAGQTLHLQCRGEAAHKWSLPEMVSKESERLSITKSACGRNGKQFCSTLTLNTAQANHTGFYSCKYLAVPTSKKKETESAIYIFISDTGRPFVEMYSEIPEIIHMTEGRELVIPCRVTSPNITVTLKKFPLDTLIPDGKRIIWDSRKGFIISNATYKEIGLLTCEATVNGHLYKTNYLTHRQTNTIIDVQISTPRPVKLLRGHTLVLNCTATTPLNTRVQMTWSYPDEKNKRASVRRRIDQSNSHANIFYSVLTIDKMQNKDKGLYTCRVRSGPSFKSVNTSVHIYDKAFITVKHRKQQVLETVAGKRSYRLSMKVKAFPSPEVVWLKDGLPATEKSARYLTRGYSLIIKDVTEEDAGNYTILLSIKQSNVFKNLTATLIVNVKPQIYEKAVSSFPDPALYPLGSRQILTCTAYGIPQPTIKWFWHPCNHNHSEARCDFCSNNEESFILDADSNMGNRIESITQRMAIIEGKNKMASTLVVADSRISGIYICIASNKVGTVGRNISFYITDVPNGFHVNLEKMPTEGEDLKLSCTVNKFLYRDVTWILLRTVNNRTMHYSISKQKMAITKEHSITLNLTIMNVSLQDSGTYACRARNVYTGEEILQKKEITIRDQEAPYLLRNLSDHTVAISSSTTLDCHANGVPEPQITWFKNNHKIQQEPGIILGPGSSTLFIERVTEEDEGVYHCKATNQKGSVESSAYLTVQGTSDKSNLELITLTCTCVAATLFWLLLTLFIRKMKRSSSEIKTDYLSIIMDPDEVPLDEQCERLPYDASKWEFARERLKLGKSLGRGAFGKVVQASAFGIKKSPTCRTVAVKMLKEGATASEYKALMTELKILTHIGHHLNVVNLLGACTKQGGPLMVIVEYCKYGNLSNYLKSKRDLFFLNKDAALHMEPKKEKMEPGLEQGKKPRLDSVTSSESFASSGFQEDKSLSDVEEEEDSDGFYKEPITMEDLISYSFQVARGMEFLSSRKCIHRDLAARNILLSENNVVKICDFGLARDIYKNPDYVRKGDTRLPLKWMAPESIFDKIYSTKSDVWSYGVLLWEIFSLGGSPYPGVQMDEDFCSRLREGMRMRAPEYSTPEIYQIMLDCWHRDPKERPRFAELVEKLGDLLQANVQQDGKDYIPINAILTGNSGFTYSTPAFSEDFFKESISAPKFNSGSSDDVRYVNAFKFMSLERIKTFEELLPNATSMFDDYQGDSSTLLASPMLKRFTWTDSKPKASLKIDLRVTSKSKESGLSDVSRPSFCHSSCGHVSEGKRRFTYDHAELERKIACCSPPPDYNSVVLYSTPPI", "details": "kinase FLT1; Published KINOMEscan; ref original PKIS2 published data; cited from earlier work"}, "[2]": {"biological_target": "T1, kinases (KINOMEscan panel) (Homo sapiens, UniProt Q96PN8)", "T1 sequence (Q96PN8 1-268)": "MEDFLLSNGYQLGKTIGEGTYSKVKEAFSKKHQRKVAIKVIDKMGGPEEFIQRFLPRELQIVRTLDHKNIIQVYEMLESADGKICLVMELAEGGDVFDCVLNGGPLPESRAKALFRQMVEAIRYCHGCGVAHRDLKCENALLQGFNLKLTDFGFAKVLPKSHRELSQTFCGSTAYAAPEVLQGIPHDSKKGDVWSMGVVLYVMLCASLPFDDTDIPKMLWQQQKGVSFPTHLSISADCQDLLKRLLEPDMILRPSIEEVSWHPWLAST", "details": "kinase TSSK3; Published KINOMEscan; ref original PKIS2 published data; cited from earlier work"}, "[3]": {"biological_target": "kinases (KINOMEscan panel) (Homo sapiens, UniProt P00533)", "sequence (P00533 25-1210)": "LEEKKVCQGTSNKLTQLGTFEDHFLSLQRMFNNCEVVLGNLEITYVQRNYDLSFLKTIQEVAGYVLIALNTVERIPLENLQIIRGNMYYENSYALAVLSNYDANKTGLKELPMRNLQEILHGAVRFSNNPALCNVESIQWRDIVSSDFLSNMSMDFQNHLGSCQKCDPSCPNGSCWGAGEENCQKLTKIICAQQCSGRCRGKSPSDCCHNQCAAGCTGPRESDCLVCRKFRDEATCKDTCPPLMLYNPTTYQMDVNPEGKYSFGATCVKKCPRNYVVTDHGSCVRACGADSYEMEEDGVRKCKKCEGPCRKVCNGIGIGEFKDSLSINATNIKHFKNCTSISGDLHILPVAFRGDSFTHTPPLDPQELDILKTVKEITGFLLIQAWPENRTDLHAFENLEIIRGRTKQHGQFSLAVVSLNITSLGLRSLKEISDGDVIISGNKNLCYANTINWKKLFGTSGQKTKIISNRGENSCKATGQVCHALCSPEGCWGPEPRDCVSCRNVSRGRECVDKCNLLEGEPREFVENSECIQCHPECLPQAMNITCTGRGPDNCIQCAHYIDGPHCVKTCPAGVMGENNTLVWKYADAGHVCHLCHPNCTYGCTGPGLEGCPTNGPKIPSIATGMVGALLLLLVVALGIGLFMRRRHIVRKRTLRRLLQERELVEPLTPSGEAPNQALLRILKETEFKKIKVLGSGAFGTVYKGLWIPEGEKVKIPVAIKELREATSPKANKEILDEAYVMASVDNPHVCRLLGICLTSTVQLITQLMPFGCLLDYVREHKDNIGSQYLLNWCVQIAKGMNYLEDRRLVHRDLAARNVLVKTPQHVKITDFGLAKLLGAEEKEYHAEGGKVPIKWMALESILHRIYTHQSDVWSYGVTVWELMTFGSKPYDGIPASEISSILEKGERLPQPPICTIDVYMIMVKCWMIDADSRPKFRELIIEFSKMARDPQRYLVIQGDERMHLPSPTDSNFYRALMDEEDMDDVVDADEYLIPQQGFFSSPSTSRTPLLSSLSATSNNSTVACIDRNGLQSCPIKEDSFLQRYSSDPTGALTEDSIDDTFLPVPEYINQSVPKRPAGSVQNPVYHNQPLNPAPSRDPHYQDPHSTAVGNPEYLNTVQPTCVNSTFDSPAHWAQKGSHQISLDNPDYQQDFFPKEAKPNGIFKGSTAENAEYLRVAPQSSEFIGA", "details": "kinase EGFR; Published KINOMEscan; ref original PKIS2 published data; cited from earlier work"}, "[4]": {"biological_target": "T2, kinases (KINOMEscan panel) (Homo sapiens, UniProt O15197)", "T2 sequence (O15197 32-1021)": "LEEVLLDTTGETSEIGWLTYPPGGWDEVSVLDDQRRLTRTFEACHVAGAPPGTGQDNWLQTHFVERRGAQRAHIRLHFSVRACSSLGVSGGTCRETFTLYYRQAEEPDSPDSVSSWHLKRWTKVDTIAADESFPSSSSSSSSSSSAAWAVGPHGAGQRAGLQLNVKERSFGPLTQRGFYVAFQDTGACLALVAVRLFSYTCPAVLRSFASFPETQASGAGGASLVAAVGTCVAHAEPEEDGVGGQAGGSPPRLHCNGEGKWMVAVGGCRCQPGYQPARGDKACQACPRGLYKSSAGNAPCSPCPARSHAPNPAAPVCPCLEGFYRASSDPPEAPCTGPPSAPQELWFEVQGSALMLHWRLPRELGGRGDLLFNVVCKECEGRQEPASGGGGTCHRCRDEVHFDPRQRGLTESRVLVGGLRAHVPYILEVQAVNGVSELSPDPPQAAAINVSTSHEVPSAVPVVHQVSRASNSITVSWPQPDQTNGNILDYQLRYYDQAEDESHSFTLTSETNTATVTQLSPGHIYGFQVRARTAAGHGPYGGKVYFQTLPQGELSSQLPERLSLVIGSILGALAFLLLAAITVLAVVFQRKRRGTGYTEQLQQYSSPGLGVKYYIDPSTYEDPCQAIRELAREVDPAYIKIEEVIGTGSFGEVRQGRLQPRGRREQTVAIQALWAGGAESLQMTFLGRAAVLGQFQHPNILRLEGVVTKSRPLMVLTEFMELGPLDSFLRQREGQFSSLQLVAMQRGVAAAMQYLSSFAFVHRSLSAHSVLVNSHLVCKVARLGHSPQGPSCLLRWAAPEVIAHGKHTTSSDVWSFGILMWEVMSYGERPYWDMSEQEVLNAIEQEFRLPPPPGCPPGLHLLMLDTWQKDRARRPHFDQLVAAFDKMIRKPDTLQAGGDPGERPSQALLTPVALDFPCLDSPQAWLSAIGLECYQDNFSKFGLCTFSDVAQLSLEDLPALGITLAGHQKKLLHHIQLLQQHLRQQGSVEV", "details": "kinase EPHB6; Published KINOMEscan; ref original PKIS2 published data; cited from earlier work"}, "[5]": {"biological_target": "T3, kinases (KINOMEscan panel) (Homo sapiens, UniProt O43318)", "T3 sequence (O43318 1-606)": "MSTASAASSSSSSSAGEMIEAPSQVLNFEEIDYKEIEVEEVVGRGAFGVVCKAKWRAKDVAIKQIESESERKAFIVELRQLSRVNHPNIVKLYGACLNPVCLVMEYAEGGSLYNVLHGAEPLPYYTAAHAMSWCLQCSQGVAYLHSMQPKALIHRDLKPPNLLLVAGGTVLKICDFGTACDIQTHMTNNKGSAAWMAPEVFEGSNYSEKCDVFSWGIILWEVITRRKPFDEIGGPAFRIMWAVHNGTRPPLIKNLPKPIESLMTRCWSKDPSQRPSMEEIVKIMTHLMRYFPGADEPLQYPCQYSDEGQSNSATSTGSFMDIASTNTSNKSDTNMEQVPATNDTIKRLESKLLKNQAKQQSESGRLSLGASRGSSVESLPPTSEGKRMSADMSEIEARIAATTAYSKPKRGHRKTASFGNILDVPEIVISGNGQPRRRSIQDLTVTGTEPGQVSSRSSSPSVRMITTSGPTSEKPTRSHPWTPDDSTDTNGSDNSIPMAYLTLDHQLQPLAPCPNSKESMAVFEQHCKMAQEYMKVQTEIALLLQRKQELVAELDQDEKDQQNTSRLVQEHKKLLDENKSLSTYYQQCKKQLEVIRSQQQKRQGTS", "details": "Published KINOMEscan; ref original PKIS2 published data; cited from earlier work"}, "[6]": {"biological_target": "kinases (KINOMEscan panel) (Homo sapiens, UniProt Q9BUB5)", "sequence (Q9BUB5 whole entry)": "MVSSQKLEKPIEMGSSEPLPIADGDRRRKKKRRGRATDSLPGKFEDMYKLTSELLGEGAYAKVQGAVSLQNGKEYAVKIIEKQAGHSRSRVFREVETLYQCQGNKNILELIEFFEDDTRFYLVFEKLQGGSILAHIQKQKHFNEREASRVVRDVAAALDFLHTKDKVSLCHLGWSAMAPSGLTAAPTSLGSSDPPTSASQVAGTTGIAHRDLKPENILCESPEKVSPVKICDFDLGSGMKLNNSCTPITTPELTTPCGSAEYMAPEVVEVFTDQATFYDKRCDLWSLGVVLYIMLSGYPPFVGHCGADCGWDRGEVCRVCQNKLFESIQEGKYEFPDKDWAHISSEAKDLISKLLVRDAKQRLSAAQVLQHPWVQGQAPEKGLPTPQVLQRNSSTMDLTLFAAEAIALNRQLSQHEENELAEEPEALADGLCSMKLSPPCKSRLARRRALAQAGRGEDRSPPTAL", "details": "Published KINOMEscan; ref original PKIS2 published data; cited from earlier work"}, "[7]": {"biological_target": "kinases (KINOMEscan panel) (Homo sapiens, UniProt P31749)", "sequence (P31749 whole entry)": "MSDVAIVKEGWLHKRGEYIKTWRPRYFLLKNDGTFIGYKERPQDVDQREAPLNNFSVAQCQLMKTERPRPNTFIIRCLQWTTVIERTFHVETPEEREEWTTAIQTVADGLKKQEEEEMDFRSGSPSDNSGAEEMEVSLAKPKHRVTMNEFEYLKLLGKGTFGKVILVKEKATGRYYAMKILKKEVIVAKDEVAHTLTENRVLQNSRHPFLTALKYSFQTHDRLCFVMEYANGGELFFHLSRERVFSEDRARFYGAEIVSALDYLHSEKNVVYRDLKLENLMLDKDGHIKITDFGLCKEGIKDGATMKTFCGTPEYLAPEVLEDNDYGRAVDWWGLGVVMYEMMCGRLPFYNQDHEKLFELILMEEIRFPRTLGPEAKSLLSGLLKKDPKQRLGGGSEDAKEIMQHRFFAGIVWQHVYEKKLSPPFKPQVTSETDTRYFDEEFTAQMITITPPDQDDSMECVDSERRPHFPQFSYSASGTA", "details": "kinase AKT1; Published KINOMEscan; ref original PKIS2 published data; cited from earlier work"}, "[8]": {"biological_target": "kinases (KINOMEscan panel) (Homo sapiens, UniProt Q8IU85)", "sequence (Q8IU85 whole entry)": "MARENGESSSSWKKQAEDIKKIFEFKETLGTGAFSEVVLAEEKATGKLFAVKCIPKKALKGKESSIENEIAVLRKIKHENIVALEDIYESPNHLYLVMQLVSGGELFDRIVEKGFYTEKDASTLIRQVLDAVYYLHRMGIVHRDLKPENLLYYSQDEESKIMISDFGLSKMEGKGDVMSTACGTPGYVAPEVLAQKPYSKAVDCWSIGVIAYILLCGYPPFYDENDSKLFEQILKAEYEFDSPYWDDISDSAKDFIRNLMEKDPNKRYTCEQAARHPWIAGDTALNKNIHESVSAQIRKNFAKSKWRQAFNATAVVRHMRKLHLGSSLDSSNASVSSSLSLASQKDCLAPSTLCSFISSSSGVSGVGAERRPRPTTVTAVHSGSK", "details": "kinase CAMK1D; Published KINOMEscan; ref original PKIS2 published data; cited from earlier work"}}}
{"smiles": "Cc1cccc(-c2nc(Nc3ccncc3)c3ccccc3n2)n1", "note": "[NK215]", "values": [{"measurement": "KINOMEscan FLT1", "setting": "[1]", "result": 0}, {"measurement": "KINOMEscan TSSK3", "setting": "[2]", "result": 0}, {"measurement": "KINOMEscan EGFR", "setting": "[3]", "result": 6}, {"measurement": "KINOMEscan EPHB6", "setting": "[4]", "result": 0}, {"measurement": "KINOMEscan MAP3K7", "setting": "[5]", "result": 0}, {"measurement": "KINOMEscan MKNK1", "setting": "[6]", "result": 0}, {"measurement": "KINOMEscan AKT1", "setting": "[7]", "result": 20}, {"measurement": "KINOMEscan CAMK1D", "setting": "[8]", "result": 3}]}
